Reference: PMC6150173, “Tryptophan-Containing Cyclic Decapeptides with Activity against Plant Pathogenic Bacteria” (Molecules : A Journal of Synthetic Chemistry and Natural …, 2017)
Peptide text beside a SMILES is read from it.

How the values were obtained:
Assay type in all cases: cell-based
[1] = tested on: Pseudomonas syringae pv. syringae EPS94; experiment: Antibacterial activity (MIC), in vitro growth inhibition; conditions: Table S1, MIC range
Method in brief: (§1)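 MIC determined by in vitro growth inhibition across 0.8, 1.6, 3.1, 6.2, 12.5, 25 and 50 μM peptide. Strains tested: E. amylovora PMV6076, P. syringae pv. syringae EPS94 and X. axonopodis pv. vesicatoria 2133-2.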

[2] = tested on: Erwinia amylovora PMV6076; experiment: as above; conditions: Table S1, MIC range
Method in brief: as §1

[3] = tested on: Xanthomonas axonopodis pv. vesicatoria 2133-2; conditions: Table S1, MIC range
Method in brief: as §1

[4] = tested on: erythrocyte suspensions of human blood; experiment: Hemolytic activity, hemoglobin release; conditions: human blood erythrocytes 5% v/v, absorbance 540 nm, percentage compared to melittin, three replicates; for Hemolysis (%) at 50 µM: peptide 50 μM (table prints 50 µM); for Hemolysis (%) at 125 µM: peptide 125 μM (table prints 125 µM)
Protocol: The hemolytic activity of the compounds was evaluated at 50 and 125 μM by determining hemoglobin release from erythrocyte suspensions of human blood (5% v/v) (Oxoid) using absorbance at 540 nm, as previously described. Three replicates for each peptide concentration were used.

Row | SMILES | MIC Pss [1] | MIC Ea [2] | MIC Xav [3] | Hemolysis (%) at 50 µM [4] | Hemolysis (%) at 125 µM [4]
1 | CC(C)C[C@@H]1NC(=O)[C@H](CCCCN)NC(=O)[C@H](Cc2c[nH]c3ccccc23)NC(=O)[C@H](CC(C)C)NC(=O)[C@H](CC(C)C)NC(=O)[C@H](CCCCN)NC(=O)[C@H](CCCCN)NC(=O)[C@H](CCCCN)NC(=O)[C@H](CCC(N)=O)NC(=O)[C@H](CCCCN)NC1=O [BPC110W, c(KKKLLWKLKQ)] (cyclo(KKKLLWKLKQ)) | 3.1 to 6.2 µM | 12.5 to 25 µM | 6.2 to 12.5 µM | 3% | 4%
2 | CC(C)C[C@@H]1NC(=O)[C@H](CCCCN)NC(=O)[C@H](CCC(N)=O)NC(=O)[C@H](CCCCN)NC(=O)[C@H](CC(C)C)NC(=O)[C@H](CCCCN)NC(=O)[C@H](Cc2c[nH]c3ccccc23)NC(=O)[C@H](CC(C)C)NC(=O)[C@H](CCCCN)NC(=O)[C@H](CCCCN)NC1=O [BPC114W, c(KLKKLWKLKQ)] (cyclo(KKLWKLKQKL)) | 3.1 to 6.2 µM | 12.5 to 25 µM | 1.6 to 3.1 µM | 29% | 38%
3 | CC(C)C[C@@H]1NC(=O)[C@H](CCC(N)=O)NC(=O)[C@H](CCCCN)NC(=O)[C@H](CC(C)C)NC(=O)[C@H](CCCCN)NC(=O)[C@H](Cc2c[nH]c3ccccc23)NC(=O)[C@H](CC(C)C)NC(=O)[C@H](CCCCN)NC(=O)[C@H](CCCCN)NC(=O)[C@H](CCCCN)NC1=O [BPC116W, c(LKKKLWKLKQ)] (cyclo(KKKLWKLKQL)) | 3.1 to 6.2 µM | 12.5 to 25 µM | 3.1 to 6.2 µM | 9% | 14%
4 | CC(C)C[C@@H]1NC(=O)[C@H](CCCCN)NC(=O)[C@H](Cc2c[nH]c3ccccc23)NC(=O)[C@H](CCCCN)NC(=O)[C@H](CC(C)C)NC(=O)[C@H](CC(C)C)NC(=O)[C@H](CCCCN)NC(=O)[C@H](CCCCN)NC(=O)[C@H](CCC(N)=O)NC(=O)[C@H](CCCCN)NC1=O [BPC118W, c(KKLLKWKLKQ)] (cyclo(KKLLKWKLKQ)) | 6.2 to 12.5 µM | 12.5 to 25 µM | 12.5 to 25 µM | 4% | 4%
5 | CC(C)C[C@@H]1NC(=O)[C@H](CCC(N)=O)NC(=O)[C@H](CCCCN)NC(=O)[C@H](CC(C)C)NC(=O)[C@H](CCCCN)NC(=O)[C@H](Cc2c[nH]c3ccccc23)NC(=O)[C@H](CCCCN)NC(=O)[C@H](CC(C)C)NC(=O)[C@H](CCCCN)NC(=O)[C@H](CCCCN)NC1=O [BPC120W, c(LKKLKWKLKQ)] (cyclo(KKLKWKLKQL)) | 3.1 to 6.2 µM | 12.5 to 25 µM | 1.6 to 3.1 µM | 6% | 9% and below 20%
6 | CC(C)C[C@@H]1NC(=O)[C@H](CCCCN)NC(=O)[C@H](Cc2c[nH]c3ccccc23)NC(=O)[C@H](CCCCN)NC(=O)[C@H](CCCCN)NC(=O)[C@H](CC(C)C)NC(=O)[C@H](CC(C)C)NC(=O)[C@H](CCCCN)NC(=O)[C@H](CCC(N)=O)NC(=O)[C@H](CCCCN)NC1=O [BPC122W, c(KLLKKWKLKQ)] (cyclo(KKWKLKQKLL)) | 3.1 to 6.2 µM | 12.5 to 25 µM | 6.2 to 12.5 µM | 2% | 6%
7 | CC(C)C[C@@H]1NC(=O)[C@H](CCCCN)NC(=O)[C@H](Cc2c[nH]c3ccccc23)NC(=O)[C@H](CCCCN)NC(=O)[C@H](CCCCN)NC(=O)[C@H](CCCCN)NC(=O)[C@H](CC(C)C)NC(=O)[C@H](CC(C)C)NC(=O)[C@H](CCC(N)=O)NC(=O)[C@H](CCCCN)NC1=O [BPC126W, c(LLKKKWKLKQ)] (cyclo(KKKWKLKQLL)) | 6.2 to 12.5 µM | 25 to 50 µM | 1.6 to 3.1 µM | 5% | 9%
8 | CC(C)C[C@@H]1NC(=O)[C@H](CCCCN)NC(=O)[C@H](CCCCN)NC(=O)[C@H](CCCCN)NC(=O)[C@H](CCC(N)=O)NC(=O)[C@H](CCCCN)NC(=O)[C@H](CCCCN)NC(=O)[C@H](CC(C)C)NC(=O)[C@H](Cc2c[nH]c3ccccc23)NC(=O)[C@H](CC(C)C)NC1=O [BPC128W, c(KKKLLWLKKQ)] (cyclo(KKKLLWLKKQ)) | 6.2 to 12.5 µM | 12.5 to 25 µM | 1.6 to 3.1 µM | 2% | 2%
9 | CC(C)C[C@@H]1NC(=O)[C@H](CCCCN)NC(=O)[C@H](CCCCN)NC(=O)[C@H](CCC(N)=O)NC(=O)[C@H](CCCCN)NC(=O)[C@H](CCCCN)NC(=O)[C@H](CC(C)C)NC(=O)[C@H](Cc2c[nH]c3ccccc23)NC(=O)[C@H](CC(C)C)NC(=O)[C@H](CCCCN)NC1=O [BPC130W, c(KKLKLWLKKQ)] (cyclo(KKLKLWLKKQ)) | 6.2 to 12.5 µM | 12.5 to 25 µM | 1.6 to 3.1 µM | 1% | 2%
10 | CC(C)C[C@@H]1NC(=O)[C@H](CCCCN)NC(=O)[C@H](CCC(N)=O)NC(=O)[C@H](CCCCN)NC(=O)[C@H](CCCCN)NC(=O)[C@H](CC(C)C)NC(=O)[C@H](Cc2c[nH]c3ccccc23)NC(=O)[C@H](CC(C)C)NC(=O)[C@H](CCCCN)NC(=O)[C@H](CCCCN)NC1=O [BPC132W, c(KLKKLWLKKQ)] (cyclo(KKLWLKKQKL)) | 3.1 to 6.2 µM | 12.5 to 25 µM | 1.6 to 3.1 µM | 5% | 8% and below 20%
11 | CC(C)C[C@@H]1NC(=O)[C@H](CCC(N)=O)NC(=O)[C@H](CCCCN)NC(=O)[C@H](CCCCN)NC(=O)[C@H](CC(C)C)NC(=O)[C@H](Cc2c[nH]c3ccccc23)NC(=O)[C@H](CC(C)C)NC(=O)[C@H](CCCCN)NC(=O)[C@H](CCCCN)NC(=O)[C@H](CCCCN)NC1=O [BPC134W, c(LKKKLWLKKQ)] (cyclo(KKKLWLKKQL)) | 6.2 to 12.5 µM | 25 to 50 µM | 3.1 to 6.2 µM | 3% | 4%
12 | CC(C)C[C@@H]1NC(=O)[C@H](CCCCN)NC(=O)[C@H](CCCCN)NC(=O)[C@H](CCC(N)=O)NC(=O)[C@H](CCCCN)NC(=O)[C@H](CCCCN)NC(=O)[C@H](CC(C)C)NC(=O)[C@H](Cc2c[nH]c3ccccc23)NC(=O)[C@H](CCCCN)NC(=O)[C@H](CC(C)C)NC1=O [BPC136W, c(KKLLKWLKKQ)] (cyclo(KKLLKWLKKQ)) | 6.2 to 12.5 µM | 6.2 to 12.5 µM | 3.1 to 6.2 µM | 1% | 2%
13 | CC(C)C[C@@H]1NC(=O)[C@H](CCCCN)NC(=O)[C@H](CC(C)C)NC(=O)[C@H](CCCCN)NC(=O)[C@H](CCC(N)=O)NC(=O)[C@H](CCCCN)NC(=O)[C@H](CCCCN)NC(=O)[C@H](CC(C)C)NC(=O)[C@H](Cc2c[nH]c3ccccc23)NC(=O)[C@H](CCCCN)NC1=O [BPC138W, c(KLKLKWLKKQ)] (cyclo(KKQKLKLKWL)) | 6.2 to 12.5 µM | 25 to 50 µM | 3.1 to 6.2 µM | 7% | 14%
14 | CC(C)C[C@@H]1NC(=O)[C@H](CCC(N)=O)NC(=O)[C@H](CCCCN)NC(=O)[C@H](CCCCN)NC(=O)[C@H](CC(C)C)NC(=O)[C@H](Cc2c[nH]c3ccccc23)NC(=O)[C@H](CCCCN)NC(=O)[C@H](CC(C)C)NC(=O)[C@H](CCCCN)NC(=O)[C@H](CCCCN)NC1=O [BPC140W, c(LKKLKWLKKQ)] (cyclo(KKLKWLKKQL)) | 6.2 to 12.5 µM | 12.5 to 25 µM | 3.1 to 6.2 µM | 31% | 37%
15 | CC(C)C[C@@H]1NC(=O)[C@H](CCCCN)NC(=O)[C@H](CCC(N)=O)NC(=O)[C@H](CCCCN)NC(=O)[C@H](CCCCN)NC(=O)[C@H](CC(C)C)NC(=O)[C@H](Cc2c[nH]c3ccccc23)NC(=O)[C@H](CCCCN)NC(=O)[C@H](CCCCN)NC(=O)[C@H](CC(C)C)NC1=O [BPC142W, c(KLLKKWLKKQ)] (cyclo(KKQKLLKKWL)) | 6.2 to 12.5 µM | 12.5 to 25 µM | 3.1 to 6.2 µM | 16% | 18%
16 | CC(C)C[C@@H]1NC(=O)[C@H](CCCCN)NC(=O)[C@H](CC(C)C)NC(=O)[C@H](CCC(N)=O)NC(=O)[C@H](CCCCN)NC(=O)[C@H](CCCCN)NC(=O)[C@H](CC(C)C)NC(=O)[C@H](Cc2c[nH]c3ccccc23)NC(=O)[C@H](CCCCN)NC(=O)[C@H](CCCCN)NC1=O [BPC144W, c(LKLKKWLKKQ)] (cyclo(KKQLKLKKWL)) | 3.1 to 6.2 µM | 12.5 to 25 µM | 1.6 to 3.1 µM | 16% | 21%
17 | CC(C)C[C@@H]1NC(=O)[C@H](CCC(N)=O)NC(=O)[C@H](CCCCN)NC(=O)[C@H](CCCCN)NC(=O)[C@H](CC(C)C)NC(=O)[C@H](Cc2c[nH]c3ccccc23)NC(=O)[C@H](CCCCN)NC(=O)[C@H](CCCCN)NC(=O)[C@H](CCCCN)NC(=O)[C@H](CC(C)C)NC1=O [BPC146W, c(LLKKKWLKKQ)] (cyclo(KKKWLKKQLL)) | 3.1 to 6.2 µM | 25 to 50 µM | 3.1 to 6.2 µM | 4% | 7%
